One experiment relates to Staphylococcus aureus. In words: Antibacterial activity against Staphylococcus aureus 209p by serial dilution method. Type of experiment: functional.
Another experiment concerns Candida albicans. In words: Antifungal activity against Candida albicans 855-653 by serial dilution method. Type of experiment: functional.
Another experiment has as its system B16-F10. Put plainly: Antiproliferative activity against mouse B16F10 cells. Type of experiment: functional, cell-based.
Experiment [1] has as its system HCT-116. In words: Antiproliferative activity against human HCT116 cells after 72 hrs by MTT assay. Type of experiment: functional, cell-based. The conditions noted are these: HCT-116, 72 h. (Formazan colour is commonly taken as a measure of viable cells.)
The subject of experiment [2] is Mycobacterium tuberculosis. Put plainly: Antimycobacterial activity against Mycobacterium tuberculosis H37Rv after 11 days by serial dilution method. Type of experiment: functional. The conditions noted are these: 264 h.
For experiment [3], the system named is Mycobacterium tuberculosis. Put plainly: Antimycobacterial activity against Mycobacterium tuberculosis H37Rv after 10 to 12 days by vertical diffusion method. Type of experiment: functional.
In the next experiment the test system is Mycobacterium avium. In words: Antimycobacterial activity against Mycobacterium avium after 10 to 12 days by vertical diffusion method. Type of experiment: functional.
The next experiment has as its system Mycolicibacter terrae. Put plainly: Antimycobacterial activity against Mycobacterium terrae after 10 to 12 days by vertical diffusion method. Type of experiment: functional.
Experiment [4] deals with HCT-116. Put plainly: Antiproliferative activity against human HCT116 cells after 48 hrs by MTT assay. Type of experiment: functional, cell-based. The conditions noted are these: HCT-116, 48 h.
Another experiment concerns ASPC1. In words: Antiproliferative activity against human AsPC1 cells after 48 hrs by MTT assay. Type of experiment: functional, cell-based. To be noted: ASPC1, 48 h.
The test system of the next experiment is A549. Put plainly: Antiproliferative activity against human A549 cells after 48 hrs by MTT assay. Type of experiment: functional, cell-based. The conditions noted are these: A549, 48 h.
The subject of the next experiment is Huh-7. In words: Antiproliferative activity against human HuH7 cells by MTT assay. Type of experiment: functional, cell-based.
Experiment [5] relates to HepG2. Put plainly: Antiproliferative activity against human HepG2 cells by MTT assay. Type of experiment: functional, cell-based.
Experiment [6] relates to HCT-116. Put plainly: Antiproliferative activity against human HCT116 cells by MTT assay. Type of experiment: functional, cell-based.
Another experiment deals with SW-620. Put plainly: Antiproliferative activity against human SW620 cells by MTT assay. Type of experiment: functional, cell-based.
A further experiment relates to Bacillus subtilis. Put plainly: Antibacterial activity against Bacillus subtilis CMCC (B) 63501 after 6 hrs by two fold serial dilution method. Type of experiment: functional. The conditions noted are these: CMCC (B) 63501, 6 h.
Experiment [7] relates to HL-60. In words: Antiproliferative activity against human HL60 cells after 24 hrs by MTT assay. Type of experiment: functional, cell-based. To be noted: HL-60, 24 h.
The subject of another experiment is MRC5. In words: Antiproliferative activity against human MRC5 cells after 24 hrs by MTT assay. To be noted: MRC5, 24 h. Type of experiment: cell-based.
Experiment [8] concerns HepG2. Put plainly: Antiproliferative activity against human HepG2 cells after 24 hrs by MTT assay. Type of experiment: functional, cell-based. To be noted: HepG2, 24 h.
A further experiment deals with NCI-H460. In words: Antiproliferative activity against human H460 cells after 24 hrs by MTT assay. Type of experiment: functional, cell-based. To be noted: NCI-H460, 24 h.
In experiment [9] the test system is Mycobacterium tuberculosis. Put plainly: Antimycobacterial activity against Mycobacterium tuberculosis H37Rv after 10 to 12 days by double serial dilution method. Type of experiment: functional.
The next experiment relates to SK-BR-3. In words: Antiproliferative activity against human SKBR3 cells after 48 hrs by MTT assay. Type of experiment: functional, cell-based. To be noted: SK-BR-3, 48 h.
The test system of the next experiment is AZ-521 cell line. Put plainly: Antiproliferative activity against human AZ-521 cells after 48 hrs by MTT assay. Type of experiment: functional, cell-based. To be noted: AZ-521, 48 h.
The subject of experiment [10] is HL-60. Put plainly: Antiproliferative activity against human HL60 cells after 48 hrs by MTT assay. Type of experiment: functional, cell-based. To be noted: HL-60, 48 h.
The test system of experiment [11] is HepG2. In words: Antiproliferative activity against human HepG2 cells. Type of experiment: functional, cell-based.
For another experiment, the system named is HeLa. Put plainly: Antiproliferative activity against human HeLa cells after 48 hrs by MTT assay. Type of experiment: functional, cell-based.
Experiment [12] in a line: Inhibition of calf thymus DNA polymerase alpha using poly(dA)template/oligo(dT) (12 to 18 residues) primer and dTTP as substrate after 10 mins. The arrangement: species or system Bos taurus.
Experiment [13] deals with MCF7. In words: Antiproliferative activity against human MCF7 cells. Type of experiment: functional, cell-based.
For experiment [14], the system named is MCF7. Put plainly: Antiproliferative activity against human MCF7 cells after 48 hrs by SRB assay. Type of experiment: functional, cell-based. The conditions noted are these: MCF7, 48 h. In general terms: Sulforhodamine B stains cellular protein and so reports cell mass.
In experiment [15] the test system is Syrian golden hamster. Put plainly: Induction of insulin sensitivity in Syrian golden hamster assessed as uplift of glucose uptake in insulin-resistance condition relative to control. Type of experiment: functional, Mesocricetus auratus.
Experiment [16] has as its system Syrian golden hamster. Put plainly: Induction of insulin sensitivity in Syrian golden hamster assessed as uplift of glucose uptake in normal condition relative to control. Type of experiment: functional, Mesocricetus auratus.
The test system of another experiment is Jejunum. Put plainly: Downregulation of glucose uptake in Syrian golden hamster jejunum at 1 mM after 60 mins relative to control. Type of experiment: functional, Mesocricetus auratus.

The structures appear in SMILES notation. Converted amounts (≈) assume the structure as drawn.

A word on the MIC: it is the lowest concentration found to suppress growth. High values mean a less susceptible organism, low ones a more susceptible organism. Consider `C[C@@]12CC[C@@H]3[C@@](CC[C@H]4[C@@]3(C)CCC[C@@]4(C)C(=O)OCC[N+](C)(C)Cc3ccccc3)(CC1=O)C2.[Br-]`, for which the MIC against Staphylococcus aureus and against Candida albicans was 31.2 µg/mL throughout.
As a reminder, the IC50 is the point on the concentration scale where inhibition reaches its midpoint. In the experiment on B16-F10, `C=C1C(=O)[C@@]2(C)CC[C@@H]3[C@]1(CC[C@H]1[C@@]3(C)CCC[C@@]1(C)C(=O)NCC(=O)OCCCOc1no[n+]([O-])c1S(=O)(=O)c1ccccc1)C2` had an IC50 of 0.02 µM.
`CCOC(=O)[C@]1(C)CCC[C@@]2(C)[C@@H]3CC[C@@]4(C)C[C@]3(CC[C@@H]21)[C@H](Cn1cc(COc2ccccc2C=O)nn1)[C@H]4O` displayed an IC50 with HCT-116 [1] of 2.98 µM.
Regarding `COC(=O)[C@]1(C)CCC[C@@]2(C)[C@@H]3CC[C@@]4(C)C[C@]3(CC[C@@H]21)C/C4=N\NC(=O)c1ccccn1`, the MIC in experiment [2] came out at 10 µg/mL (≈ 22.1 µM).
In the case of `COC(=O)[C@]1(C)CCC[C@@]2(C)[C@@H]3CC[C@@]4(C)C[C@]3(CC[C@@H]21)C/C4=N\NC(=O)c1cccnc1`, the MIC in experiment [2] came out at 10 µg/mL (≈ 22.1 µM).
Take `C[C@@]12CC[C@@H]3[C@@](CC[C@H]4[C@@]3(C)CCC[C@@]4(C)C(=O)O[C@@H]3O[C@H](C(=O)NN)[C@@H](O)[C@H](O)[C@H]3O)(C/C1=N\N)C2`: the MIC was determined as 0.7 µg/mL (≈ 1.34 µM) in experiment [3], 0.7 µg/mL (≈ 1.34 µM) against Mycobacterium avium and 0.35 µg/mL (≈ 0.67 µM) against Mycolicibacter terrae.
For the molecule `C[C@@]12CC[C@@H]3[C@@](CC[C@H]4[C@@]3(C)CCC[C@@]4(C)C(=O)OCc3cn(CCCc4ccccc4)nn3)(CC1=O)C2`, the IC50 came out at 6.6 µM in the experiment on HCT-116 [4], 4.79 µM in the experiment on ASPC1 and 9.95 µM with A549.
Take `CCOC(=O)[C@]1(C)CCC[C@@]2(C)[C@@H]3CC[C@@]4(C)C[C@]3(CC[C@@H]21)C/C4=N\OC(=O)CCC(=O)OCCOc1no[n+]([O-])c1S(=O)(=O)c1ccccc1`: the IC50 was 2.86 µM with Huh-7, 2.95 µM with HepG2 [5], 0.48 µM with HCT-116 [6] and 3.02 µM in the experiment with SW-620.
Take `CCOC(=O)[C@]1(C)CCC[C@@]2(C)[C@@H]3CC[C@@]4(C)C[C@]3(CC[C@@H]21)C/C4=N\OC(=O)CCC(=O)OC(C)CCOc1no[n+]([O-])c1S(=O)(=O)c1ccccc1` (stereo partly specified): the IC50 with Huh-7 came to 1.73 µM; in the experiment with HepG2 [5] it was 2.42 µM; in the experiment on HCT-116 [6], 0.94 µM; in the experiment on SW-620, 1.15 µM.
Take `C=C[C@]12CC[C@H]3[C@@](C)(CCC[C@@]3(C)C(=O)OCC)[C@@H]1CC[C@](C)(/C=N/O)C2`: in the experiment with Bacillus subtilis, inhibition of growth (MIC) required 1.56 µg/mL (≈ 4.15 µM).
In the case of `C=C1C[C@@]23CC[C@H]4[C@@](C)(CCC[C@@]4(C)C(=O)NCCNC(=O)[C@]4(C)CCC[C@@]5(C)[C@@H]6CC[C@]7(O)C[C@@]6(CC[C@@H]54)CC7=C)[C@@H]2CC[C@]1(O)C3`, the IC50 worked out at 4.3 µM in the experiment with HL-60 [7], 17 µM in the experiment on MRC5, 17.9 µM in the experiment on HepG2 [8] and 10.7 µM in the experiment with NCI-H460.
`C[C@@]12CC[C@@H]3[C@@](CC[C@H]4[C@@]3(C)CCC[C@@]4(C)C(=O)O)(C[C@H]1CC(=O)CCCCCCCCC(=O)C[C@@H]1C[C@]34CC[C@H]5[C@@H](CCC[C@H]5C(=O)O)[C@@H]3CC[C@@]1(C)C4)C2`: in [9], the MIC worked out at 12.5 µg/mL (≈ 16.1 µM).
For the molecule `COP(=O)(OC)C(C)(C)C/C(C)=N/N=C1\C[C@]23CC[C@H]4[C@@](C)(CCC[C@@]4(C)C(=O)N/N=C(\C)CC(C)(C)P(=O)(OC)OC)[C@@H]2CC[C@@]1(C)C3`, in experiment [2], the MIC is 5 µg/mL (≈ 6.88 µM).
For the molecule `C=C1C[C@@]23CC[C@H]4[C@@H](CCC[C@@]4(C)COC(=O)/C=C/C(F)(F)F)[C@@H]2CC[C@]1(O)C3`, the IC50 is 1.2 µM in the experiment on SK-BR-3, 1.7 µM in the experiment with AZ-521 cell line, 4.1 µM in the experiment on A549 and 2.9 µM in the experiment with HL-60 [10].
In the experiment on HepG2 [11], `CCCCCCCC(=O)CO[C@]1(C)CCC[C@@]2(C)[C@@H]3CC[C@@]4(C)C[C@]3(CC[C@@H]21)CC4=O` registered an IC50 of 2 µM.
The molecule `C[C@@]12CC[C@@H]3[C@@](CC[C@H]4[C@@]3(C)CCC[C@@]4(C)C(=O)NNC(=O)CCCCC(=O)NNC(=O)[C@]3(C)CCC[C@H]4[C@@H]5CC[C@@]6(C)C[C@]5(CC[C@@H]43)CC6=O)(CC1=O)C2` gave a minimum inhibitory concentration (MIC) in [2] of 5 µg/mL (≈ 6.57 µM).
In the experiment on HeLa, `C[C@@]12CC[C@@H]3[C@@](CC[C@H]4[C@@]3(C)CCC[C@@]4(C)C(=O)OCc3cn(-c4ccccc4)nn3)(CC1=O)C2` had an IC50 of 5.83 µM. In other words, the single-digit micromolar range.
For `C[C@@]12CC[C@@H]3[C@@](CC[C@H]4[C@@]3(C)CCC[C@@]4(C)C(=O)NCCNC(=O)[C@]3(C)CCC[C@@]4(C)[C@@H]5CC[C@@]6(C)C[C@]5(CC[C@@H]43)CC6=O)(CC1=O)C2`, the half-inhibitory concentration (IC50) was determined as 4.8 µM in the experiment with HL-60 [7], 22.6 µM with MRC5, 17.4 µM with HepG2 [8] and 14 µM in the experiment with NCI-H460.
Turning to `NNC(=O)c1ccncc1` [ISONIAZID], the MIC in experiment [2] worked out at 0.5 µg/mL (≈ 3.65 µM).
Turning to `C[C@@]12CC[C@@H]3[C@@](CC[C@H]4[C@@]3(C)CCC[C@@]4(C)C(=O)O)(CC1=O)C2` [ISOSTEVIOL], the IC50 amounted to 64 µM in [12] and 2.18 µg/mL (≈ 6.85 µM) in the experiment on MCF7 [13].
As to `C=C1C[C@@]23CC[C@H]4[C@@](C)(CCC[C@@]4(C)C(=O)O)[C@@H]2CC[C@]1(O)C3` [STEVIOL], the IC50 in the experiment with MCF7 [14] came to 185 µM.
In the case of `C=C1C[C@@]23CC[C@H]4[C@@](C)(CCC[C@@]4(C)C(=O)O[C@@H]4O[C@H](CO)[C@@H](O)[C@H](O)[C@H]4O)[C@@H]2CC[C@]1(O[C@@H]1O[C@H](CO)[C@@H](O)[C@H](O)[C@H]1O[C@@H]1O[C@H](CO)[C@@H](O)[C@H](O)[C@H]1O)C3` [STEVIOSIDE], the “fold change (FC)” value in the experiment with Syrian golden hamster [15] amounted to 4.4; in the experiment on Syrian golden hamster [16] it was 2.1. For the same molecule, the Activity in the experiment on Jejunum is reported as 43%.
As for `CCN(CC)CCNC(=O)c1c(C)[nH]c(/C=C2\C(=O)Nc3ccc(F)cc32)c1C` [SUNITINIB], the IC50 in the experiment on HepG2 [5] was found to be 7.78 µM. In other words, the single-digit micromolar range.

The values above are taken from ChEMBL document CHEMBL4270582, “Diterpenoid lead stevioside and its hydrolysis products steviol and isosteviol: Biological activity and structural modification” (Eur J Med Chem, 2018).
